Data taken from paper PMC10119423, “From PERK to RIPK1: Design, synthesis and evaluation of novel potent and selective necroptosis inhibitors” (Frontiers in Chemistry, 2023).

Tested on: MEFs
Assay: RIPK1 kinase-dependent apoptosis (hTNF + TAK1i) in MEFs, Sytox Green
Format: cell-based
Conditions: Mus musculus, TAK1i + hTNF (100 pg/mL)
Description: In MEFs, TNF together with the pan caspases inhibitor zVAD.fmk induces RIPK1-dependent necroptosis while TNF together with TAK1 inhibitor induces RIPK1 kinase-dependent apoptosis. We also included the conditions selected for the Western blot experiments, where necroptosis was induced by the combination of hTNF, zVAD.fmk and TAK1 inhibitor.

Cn1cc(-c2ccc3c(c2F)CCN3C(=O)Cc2ccc(C(F)(F)F)cn2)c2c(N)ncnc21 [Compound 22]
IC50: 3.3 nM
